From ChEMBL document CHEMBL1201862, “PubChem BioAssay data set” (2004)
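Five concentrations, 48 hours, 96-well plates. At the GI50, growth is halved.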 Activity calls are given as the source filed them. Cut-off read from the data, not from the text of the source: active = GI50 up to about 1.1 µM and inactive = higher.

How the values were obtained:
Assay in all cases: NCI-60 cell line screen, 48 h
A498 = test system: A498
OVCAR-8 = test system: OVCAR-8
HCT-15 = test system: HCT-15
SF-295 = test system: SF-295
SK-MEL-2 = test system: SK-MEL-2
UO-31 = test system: UO-31
RPMI-8226 = test system: RPMI-8226
SK-OV-3 = test system: SK-OV-3
CCRF-CEM = test system: CCRF-CEM
A549 = test system: A549
SNB-75 = test system: SNB-75
NCI-H226 = test system: NCI-H226
SNB-19 = test system: SNB-19
LOX IMVI = test system: LOX IMVI
HOP-62 = test system: HOP-62
NCI-H522 = test system: NCI-H522

Row | Structure (SMILES) | GI50 (A498) | GI50 (OVCAR-8) | GI50 (HCT-15) | GI50 (SF-295) | GI50 (SK-MEL-2) | GI50 (UO-31) | GI50 (RPMI-8226) | GI50 (SK-OV-3) | GI50 (CCRF-CEM) | GI50 (A549) | GI50 (SNB-75) | GI50 (NCI-H226) | GI50 (SNB-19) | GI50 (LOX IMVI) | GI50 (HOP-62) | GI50 (NCI-H522)
1 | N#CCN1C(=O)c2cccc3cc([N+](=O)[O-])cc(c23)C1=O | 47.1 µM (inactive) | 38.9 µM (inactive) | 28 µM | 61.9 µM (inactive) | 0.745 µM (active) | 23.4 µM (inactive) | 22.7 µM (inactive) | > 100 µM (inactive) | 24.7 µM (inactive) | 40.1 µM (inactive) | 38 µM (inactive) | 17.3 µM (inactive) | 84.9 µM (inactive) | 21.6 µM (inactive) | 41.1 µM (inactive) | –
2 | CN/N=C(/c1nc2ccc([N+](=O)[O-])cc2nc1O)C(O)c1ccc(C(O)/C(=N\NC)c2nc3ccc([N+](=O)[O-])cc3nc2O)cc1 (centres undefined) | > 100 µM (inactive) | > 100 µM (inactive) | 29.5 µM | 66.4 µM (inactive) | 48 µM (inactive) | 55 µM (inactive) | 68.1 µM (inactive) | > 100 µM (inactive) | 19.8 µM (inactive) | 64.6 µM (inactive) | > 100 µM (inactive) | > 100 µM (inactive) | > 100 µM (inactive) | > 100 µM (inactive) | 42.2 µM (inactive) | –
3 | COc1ccc(NC(=O)C/C(C)=N\N=C(N)N)c([N+](=O)[O-])c1 | > 100 µM (inactive) | > 100 µM (inactive) | > 100 µM | > 100 µM (inactive) | > 100 µM (inactive) | > 100 µM (inactive) | > 100 µM (inactive) | > 100 µM (inactive) | > 100 µM (inactive) | > 100 µM (inactive) | > 100 µM (inactive) | > 100 µM (inactive) | > 100 µM (inactive) | 33.9 µM (inactive) | > 100 µM (inactive) | > 100 µM (inactive)
4 | CC(C)(C)C1CCC(O)(c2ccccc2)CC1 (centres undefined) | > 100 µM (inactive) | 88.3 µM (inactive) | 94.2 µM | > 100 µM (inactive) | > 100 µM (inactive) | > 100 µM (inactive) | 47.8 µM (inactive) | > 100 µM (inactive) | 92.9 µM (inactive) | > 100 µM (inactive) | 86.7 µM (inactive) | > 100 µM (inactive) | > 100 µM (inactive) | 77.6 µM (inactive) | > 100 µM (inactive) | 40.6 µM (inactive)
5 | C/C(=N\NS(=O)(=O)c1ccc(C)cc1)c1c(O)cc(C)oc1=O | > 100 µM (inactive) | > 100 µM (inactive) | > 100 µM | > 100 µM (inactive) | > 100 µM (inactive) | > 100 µM (inactive) | – | > 100 µM (inactive) | > 100 µM (inactive) | > 100 µM (inactive) | > 100 µM (inactive) | > 100 µM (inactive) | > 100 µM (inactive) | > 100 µM (inactive) | > 100 µM (inactive) | –
6 | O=C(/C=C/c1ccccc1F)c1ccc([N+](=O)[O-])cc1 | – | 25.8 µM (inactive) | 18.2 µM | 27.9 µM (inactive) | – | 11.6 µM (inactive) | 2 µM (inactive) | 56.5 µM (inactive) | – | 31.4 µM (inactive) | 4.58 µM (inactive) | – | – | 4.35 µM (inactive) | 32.6 µM (inactive) | –
7 | C#CCNC(=O)NCCCCC(NC(C)=O)C(=O)NCc1ccccc1 (centres undefined) | > 100 µM (inactive) | > 100 µM (inactive) | > 100 µM | > 100 µM (inactive) | – | > 100 µM (inactive) | > 100 µM (inactive) | > 100 µM (inactive) | > 100 µM (inactive) | > 100 µM (inactive) | > 100 µM (inactive) | > 100 µM (inactive) | > 100 µM (inactive) | > 100 µM (inactive) | > 100 µM (inactive) | > 100 µM (inactive)
8 | COC(=O)C(=O)CC(=O)CCn1[nH]c(=O)c(Cl)c(Cl)c1=O | > 100 µM (inactive) | > 100 µM (inactive) | > 100 µM | > 100 µM (inactive) | > 100 µM (inactive) | > 100 µM (inactive) | – | – | – | > 100 µM (inactive) | > 100 µM (inactive) | > 100 µM (inactive) | > 100 µM (inactive) | > 100 µM (inactive) | > 100 µM (inactive) | > 100 µM (inactive)
9 | O=C1C(=O)N(c2ccc(Cl)cc2)C(=O)C(=O)C1c1nc2ccccc2o1 | > 100 µM (inactive) | > 100 µM (inactive) | > 100 µM | > 100 µM (inactive) | > 100 µM (inactive) | > 100 µM (inactive) | > 100 µM (inactive) | > 100 µM (inactive) | > 100 µM (inactive) | > 100 µM (inactive) | > 100 µM (inactive) | > 100 µM (inactive) | > 100 µM (inactive) | > 100 µM (inactive) | > 100 µM (inactive) | > 100 µM (inactive)
10 | N=S(c1ccccc1)c1ccccc1[N+](=O)[O-] (centres undefined) | 34.3 µM (inactive) | 23.8 µM (inactive) | 16.6 µM | 18.8 µM (inactive) | 29.3 µM (inactive) | 16 µM (inactive) | 18.2 µM (inactive) | 33 µM (inactive) | 11.1 µM (inactive) | 16.7 µM (inactive) | 25.8 µM (inactive) | 11.9 µM (inactive) | 18.5 µM (inactive) | 13.1 µM (inactive) | 25.6 µM (inactive) | 4.71 µM (inactive)
11 | CC1OC(OP(=O)(OCc2ccccc2)OCc2ccccc2)C(OC(=O)c2ccccc2)C(OC(=O)c2ccccc2)C1I (centres undefined) | – | 98.4 µM (inactive) | 45.9 µM | 88.3 µM (inactive) | 23.8 µM (inactive) | 27.4 µM (inactive) | 19.6 µM (inactive) | > 100 µM (inactive) | 24.5 µM (inactive) | 26.4 µM (inactive) | 9.31 µM (inactive) | – | 43.8 µM (inactive) | 47.4 µM (inactive) | > 100 µM (inactive) | 21.4 µM (inactive)
12 | COc1ccc(S(=O)(=O)N[C@H](C(=O)O)c2ccccc2)cc1 | – | > 100 µM (inactive) | > 100 µM | > 100 µM (inactive) | > 100 µM (inactive) | > 100 µM (inactive) | > 100 µM (inactive) | > 100 µM (inactive) | > 100 µM (inactive) | > 100 µM (inactive) | > 100 µM (inactive) | > 100 µM (inactive) | > 100 µM (inactive) | > 100 µM (inactive) | > 100 µM (inactive) | > 10 µM (inactive)
13 | CCCCCCN(CCCCCC)C(=O)Cc1c2n(c3ccccc13)Cc1ccccc1-2 | – | 44.8 µM (inactive) | 37.4 µM | 56.8 µM (inactive) | 49.3 µM (inactive) | 44.6 µM (inactive) | 28.8 µM (inactive) | > 100 µM (inactive) | 28.1 µM (inactive) | 52.8 µM (inactive) | > 100 µM (inactive) | > 100 µM (inactive) | 80.7 µM (inactive) | 69.8 µM (inactive) | 86.7 µM (inactive) | 32.5 µM (inactive)
14 | Cc1ccc2c(c1)-c1c3c(nn1-c1ccccc1)-c1ccccc1SC3O2 (centres undefined) | > 100 µM (inactive) | > 100 µM (inactive) | – | > 100 µM (inactive) | > 100 µM (inactive) | > 100 µM (inactive) | 63.8 µM (inactive) | > 100 µM (inactive) | > 100 µM (inactive) | > 100 µM (inactive) | > 100 µM (inactive) | – | – | > 100 µM (inactive) | > 100 µM (inactive) | > 100 µM (inactive)
15 | CC(C)c1cc2c(O)c(c1)Cc1cc(C(C)C)cc(c1O)Cc1cc(C(C)C)cc(c1O)Cc1cc(C(C)C)cc(c1O)Cc1cc(C(C)C)cc(c1O)Cc1cc(C(C)C)cc(c1O)C2 | – | > 100 µM (inactive) | > 100 µM | > 100 µM (inactive) | > 100 µM (inactive) | > 100 µM (inactive) | > 100 µM (inactive) | – | > 100 µM (inactive) | > 100 µM (inactive) | 24.9 µM (inactive) | – | > 100 µM (inactive) | – | > 100 µM (inactive) | > 100 µM (inactive)
16 | c1ccc2c(c1)SC(=C1Sc3ccccc3S1)S2 | – | > 100 µM (inactive) | > 100 µM | > 100 µM (inactive) | – | > 100 µM (inactive) | – | > 100 µM (inactive) | > 100 µM (inactive) | > 100 µM (inactive) | 22.4 µM (inactive) | – | > 100 µM (inactive) | 75.7 µM (inactive) | > 100 µM (inactive) | –
17 | Cc1cc(C)nc(NS(=O)(=O)c2ccc(Nc3c4ccccc4nc4c(C(=O)N5CCN(CCO)CC5)ccc(Cl)c34)cc2)n1 | > 100 µM (inactive) | > 100 µM (inactive) | 52.2 µM | > 100 µM (inactive) | > 100 µM (inactive) | > 100 µM (inactive) | 91.4 µM (inactive) | > 100 µM (inactive) | 25.9 µM (inactive) | > 100 µM (inactive) | 87.9 µM (inactive) | > 100 µM (inactive) | > 100 µM (inactive) | – | > 100 µM (inactive) | –
18 | N#CC1(Cc2ccc(N)cc2)c2ccccc2C=CN1C(=O)c1ccccc1 (centres undefined) | 40 µM (inactive) | 40.6 µM (inactive) | – | 33 µM (inactive) | 9.29 µM (inactive) | 19.8 µM (inactive) | 35.2 µM (inactive) | 66.4 µM (inactive) | 29 µM (inactive) | 35.7 µM (inactive) | 29.3 µM (inactive) | 39.2 µM (inactive) | 41.8 µM (inactive) | 51.6 µM (inactive) | > 100 µM (inactive) | 60.1 µM (inactive)
19 | CCCN(CCC)C(=O)C(=O)c1c(N)[nH]n(-c2ccccc2)c1=O | > 100 µM (inactive) | > 100 µM (inactive) | > 100 µM | > 100 µM (inactive) | > 100 µM (inactive) | > 100 µM (inactive) | > 100 µM (inactive) | > 100 µM (inactive) | 93.3 µM (inactive) | > 100 µM (inactive) | – | > 100 µM (inactive) | > 100 µM (inactive) | > 100 µM (inactive) | – | > 100 µM (inactive)
